# Read-outs that look alike come from different tables or passages of the source.
# Experiments:
# [1] = target: T1, bovine serum albumin (BSA) (Bos taurus, UniProt P02769); experiment: BSA fluorescence quenching (Stern-Volmer); format: binding; conditions: 0.01 M PBS buffer pH 7.4, 25 °C, λex = 280 nm
# T1 construct: purchased Sigma-Aldrich Chemicals
# Experimental: Fluorescence measurements were carried out on a Varian Cary Eclipse spectrofluorometer. The quenching studies of BSA with the Ga(III) complexes were investigated to determine whether they were able to quench fluorescence of BSA. All measurements were performed at 25 °C in 0.01 M PBS buffer (pH 7.4). The fluorescence spectra were measured at an excitation wavelength of 280 nm, with a slit width of 10 nm for the excitation and emission beams, in the range of 300–450 nm and analysed according to the classical Stern–Volmer Equation: F0/F=1+KSVQ where F0 and F are the fluorescence intensities in the absence and the presence of the quencher, respectively, KSV is the Stern–Volmer constant, and [Q] is the concentration of quencher.
# [2] = tested on: Escherichia coli (E. coli) CCM 3988; experiment: Antimicrobial activity, macrodilution method (growth by A590); format: cell-based; conditions: Escherichia coli
# [3] = tested on: Staphylococcus aureus (S. aureus) CCM 3953; experiment: as above; format: cell-based; conditions: Staphylococcus aureus
# [4] = tested on: Pseudomonas aeruginosa (P. aeruginosa) CCM 1959; experiment: as above; format: cell-based; conditions: Pseudomonas aeruginosa
# [5] = tested on: A2058 (human metastatic melanoma); experiment: MTS antiproliferative assay; conditions: Homo sapiens, A2058, 72 h, read-out: Cytotoxic activity IC50 A2058
# [6] = tested on: HCT116 (human colorectal carcinoma); experiment: MTS antiproliferative assay; conditions: Homo sapiens, HCT-116, 72 h, read-out: Cytotoxic activity IC50 HCT116
# [7] = MTS antiproliferative assay (non-cancer cells); conditions: human
# [8] = tested on: Alternaria alternata (A. alternata) CCM F-128; experiment: Growth of filamentous fungi, macrodilution method on solidified PDA (colony diameter); format: cell-based; conditions: Alternaria alternata, read-out: IC50 A. alternata
# [9] = tested on: Rhizopus oryzae (R. oryzae) CCM F-8284; experiment: as above; format: cell-based; conditions: Rhizopus arrhizus, read-out: IC50 R. oryzae
# [10] = tested on: Microsporum gypseum (M. gypseum) CCM F-8342; experiment: as above; format: cell-based; conditions: Nannizzia gypsea, read-out: IC50 M. gypseum
# [11] = Filamentous fungi, solidified potato-dextrose growth medium
# T1 sequence (P02769 25-607): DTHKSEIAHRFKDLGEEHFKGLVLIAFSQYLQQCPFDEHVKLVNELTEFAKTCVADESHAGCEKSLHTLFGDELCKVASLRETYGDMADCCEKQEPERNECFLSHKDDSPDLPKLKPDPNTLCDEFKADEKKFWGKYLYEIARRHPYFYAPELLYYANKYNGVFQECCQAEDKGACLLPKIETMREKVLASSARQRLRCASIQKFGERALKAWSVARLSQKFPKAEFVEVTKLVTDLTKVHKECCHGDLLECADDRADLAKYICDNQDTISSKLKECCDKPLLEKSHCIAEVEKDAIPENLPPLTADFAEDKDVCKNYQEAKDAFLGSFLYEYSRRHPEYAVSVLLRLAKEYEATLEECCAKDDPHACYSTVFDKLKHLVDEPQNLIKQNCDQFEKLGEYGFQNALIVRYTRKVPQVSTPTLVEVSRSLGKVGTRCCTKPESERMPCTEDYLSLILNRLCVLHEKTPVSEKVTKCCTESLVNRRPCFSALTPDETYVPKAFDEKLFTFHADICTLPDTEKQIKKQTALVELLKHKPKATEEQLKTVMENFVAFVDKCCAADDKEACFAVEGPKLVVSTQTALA
SMILES,Stern–Volmer binding constant Ksv BSA [1] [M⁻¹],"IC50 ([2]; CCM3988, read-out: IC50 E. coli) [µM]","IC50 ([3]; CCM3953, read-out: IC50 S. aureus) [µM]","IC50 ([4]; CCM1959, read-out: IC50 P. aeruginosa) [µM]",IC50 [5] [µM],IC50 [6] [µM],IC50 at 72 h [7] [µM],IC50 [8] [µM],IC50 [9] [µM],IC50 [10] [µM],"IC50 ([2]; CCM3988, Bacteria, MHB, 37 °C, DMSO max 1.0 vol. %, read-out: IC50 E. coli) [µM]","IC50 ([3]; CCM3953, Bacteria, MHB, 37 °C, DMSO max 1.0 vol. %, read-out: IC50 S. aureus) [µM]","IC50 ([4]; CCM1959, Bacteria, MHB, 37 °C, DMSO max 1.0 vol. %, read-out: IC50 P. aeruginosa) [µM]",IC50 at 72 h ([7]; human dermal fibroblasts (HDF)) [µM],"IC50 [8, 11] [µM]",IC50 ([9]; solidified potato-dextrose growth medium) [µM],"IC50 [10, 11] [µM]"
"O=C(O)c1cccc(C(=O)O)n1 [H2Dpic, dipicolinic acid]",28700,> 1000,> 1000,> 1000,> 200,> 200,> 200,> 1000,500,> 1000,–,–,–,–,–,–,–
"O=C(O)c1ccccn1 [HPic, picolinic acid]",6800,–,–,–,> 200,> 200,–,–,–,–,> 500,> 500,> 500,> 200,> 500,> 500,> 500

# From paper PMC10415494, “Ga(III) pyridinecarboxylate complexes: potential analogues of the second generation of therapeutic Ga(III) complexes?” (Journal of Biological Inorganic Chemistry, 2023)
